Converted amounts (≈) assume the structure as drawn. Like-named read-outs stand apart in the source and are kept apart here.
What was measured:
Assay type in all cases: cell-based
S. aureus ATCC 29213 = assay: In vitro antibacterial evaluation, MIC by agar dilution, S. aureus ATCC 29213; conditions: Staphylococcus aureus, ATCC29213
Method: (§1) The compounds of the invention were evaluated against several β-lactamresistant bacteria strains by determining the minimum inhibitory concentration (MIC, μg/ml) of each compound with respect to each strain. The MIC, the lowest concentration of antibiotic which inhibits growth of the test organism, was determined by the agar dilution method.
(§2) To determine the MIC for bacterial isolates, the test compound was incorporated in a series of two-fold dilutions into liquified Mueller-Hinton agar. Upon solidification, a number of different bacterial strains were spot inoculated with a replicating device onto the agar surface. […] The procedures used in these studies have been standardized by the National Committee for Clinical Laboratory Standards (NCCLS), as per the NCCLS publication entitled METHODS FOR DILUTION ANTIMICROBIAL SUSCEPTIBILITY TESTS (1991), which is incorporated herein by reference.
(§3) Aliquots of antimicrobial agents were prepared in phosphate buffered saline (PBS) at pH 7.2. Tween 20 or DMSO was used as a solubilizing vehicle as needed. Standard methods of vortexing, sonicating and gentle heat were used to facilitate solubilizing the test agent. Typically, the concentration of the stock solution was 10× that of the highest drug concentration tested. A 1.28 mg/mL stock solution was used with a subsequent highest working concentration of 128 μg/mL. Serial two-fold dilutions were done through ≤0.25 μg/mL. Each drug level was tested in duplicate. Two-fold drug dilutions were done in sterile 50 mL tubes with a final drug volume of 5 mL. Upon the addition of 45 mL of molten agar, a 10-fold dilution resulted. Two, 25 mL. plates were then poured into 15×150 mm square Petri plates with grids and allowed to harden.
(§4) A control plate with a reference drug, either cefotaxime, vancomycin or imipenem, was used as the positive growth control. Stock concentrations of reference antibiotics were prepared and frozen at -80° C. Upon preparation, the control plates were sealed and stored in the refrigerator for up to 1 week prior to use; however, imipenem control plates had to be prepared just prior to use. All test plates were used within 24 hours of preparation.
(§5) Satisfactory results were obtained where the inoculum contained about 10^4 colony forming units (cfu) ±0.5 logs. Starting with pure cultures of the test isolates on agar plates, a few isolated colonies were transferred to a tube of nutrient broth and allowed to grow 4-6 hours at 35°-36° C. to reach log-phase growth. Dropwise addition of the broth culture to PBS was done to match a 0.5 McFarland turbidity standard equal to 10^8 cfu/mL. This was further diluted ten-fold in PBS to reach a working inoculum concentration of 10^7 cfu/mL. When 1 μL of the working inoculum was applied to the agar surface a concentration of about 10^4 cfu per spot was obtained.
(§6) Disposable sterile 1 μL loops were used to inoculate test plates, with each isolate in a designated grid on the agar plate. An alternate method of inoculation involved the use of a replica plater, a device with 48 steel pins allowing the simultaneous inoculation of multiple isolates. After the spots had dried, the plates were incubated at 35°-36° C. for 16-20 hours. Endpoints were assessed as the minimum inhibitory concentration (MIC) of antimicrobial agent.

S. haemolyticus (Meth^R) = assay: In vitro antibacterial evaluation, MIC by agar dilution, S. haemolyticus; conditions: Staphylococcus haemolyticus, read-out: MIC
Method: as §1, §2, §3, §4, §5, §6

E. faecium ATCC 35667 = assay: In vitro antibacterial evaluation, MIC by agar dilution, E. faecium ATCC 35667; conditions: Enterococcus faecium, ATCC35667, read-out: MIC
Method: as §1, §2, §3, §4, §5, §6

E. faecalis ATCC 29212 = assay: In vitro antibacterial evaluation, MIC by agar dilution, E. faecalis ATCC 29212; conditions: Enterococcus faecalis, ATCC29212; E. faecalis ATCC 29212; read-out: MIC
Method: as §1, §2, §3, §4, §5, §6

[1] = tested on: S. aureus Col8A (Meth^S)(lac^-); assay: In vitro antibacterial evaluation, MIC by agar dilution, S. aureus Col8A; conditions: Staphylococcus aureus
Method: as §1, §2, §3, §4, §5, §6
The novel agents of this invention are notable for their enhanced activity against S. aureus Col and Enterococci (E. faecium and E. faecalis). The S. aureus Col strain is a high-level PBP2a producer, whereas S. aureus Col 8A, its isogenic partner, lacks PBP2a. […] Thus, the compounds of the present invention are effective against PBP2a-producing bacteria.

P. aeruginosa ATCC 27853 = assay: In vitro antibacterial evaluation, MIC by agar dilution, P. aeruginosa ATCC 27853; conditions: Pseudomonas aeruginosa, ATCC27853, read-out: MIC
Method: as §1, §2, §3, §4, §5, §6

[2] = tested on: S. aureus 76 (Meth^R)(lac^+); assay: In vitro antibacterial evaluation, MIC by agar dilution, S. aureus 76; conditions: Staphylococcus aureus, read-out: MIC
Method: as §1, §2, §3, §4, §5, §6

E. coli ATCC 25922 = assay: In vitro antibacterial evaluation, MIC by agar dilution, E. coli ATCC 25922; conditions: Escherichia coli, ATCC25922, read-out: MIC
Method: as §1, §2, §3, §4, §5, §6

[3] = S. aureus ATCC 29213, read-out: MIC

Compound: CCCCCC(=O)N[C@@H]1C(=O)N2C(C(=O)O)=C(Sc3ccnn3-c3ccccc3)CS[C@H]12 [Cmpd 109, (7R)-7-[(hexanoyl)amino]-3-(1-N-phenylpyrazol-5-ylthio)-3-cephem-4-carboxylic acid]
- MIC (S. aureus ATCC 29213): 0.125 µg/mL (≈ 0.264 µM)
- MIC (S. haemolyticus (Meth^R)): 32 µg/mL (≈ 67.7 µM)
- MIC (E. faecium ATCC 35667): 4 µg/mL (≈ 8.46 µM)
- MIC (E. faecalis ATCC 29212): 4 µg/mL (≈ 8.46 µM)
- MIC [1]: 0.125 µg/mL (≈ 0.264 µM)
- MIC (P. aeruginosa ATCC 27853): > 32 µg/mL
- MIC [2]: 16 µg/mL (≈ 33.9 µM)
- MIC (E. coli ATCC 25922): > 32 µg/mL

Compound: O=C(Cc1ccco1)N[C@@H]1C(=O)N2C(C(=O)O)=C(Sc3ccnn3-c3ccccc3)CS[C@H]12 [Cmpd 111, (7R)-7-[(2-furylacetyl)amino]-3-(1-N-phenylpyrazol-5-ylthio)-3-cephem-4-carboxylic acid]
- MIC (S. aureus ATCC 29213; [3]): 0.5 µg/mL (≈ 1.04 µM)
- MIC (S. haemolyticus (Meth^R)): 32 µg/mL (≈ 66.3 µM)
- MIC (E. faecium ATCC 35667): 4 µg/mL (≈ 8.29 µM)
- MIC (E. faecalis ATCC 29212): 4 µg/mL (≈ 8.29 µM)
- MIC [1]: 0.25 µg/mL (≈ 0.518 µM)
- MIC (P. aeruginosa ATCC 27853): > 32 µg/mL
- MIC [2]: 16 µg/mL (≈ 33.2 µM)
- MIC (E. coli ATCC 25922): > 32 µg/mL

Compound: O=C(Cc1ccccc1)N[C@@H]1C(=O)N2C(C(=O)O)=C(Sc3ccnn3-c3cccc([N+](=O)[O-])c3)CS[C@H]12 [Cmpd 113, (7R)-7-[(Phenylacetyl)amino]-3-(1-N-(3-nitrophenyl)pyrazol-5-ylthio)-3-cephem-4-carboxylic acid]
- MIC (S. aureus ATCC 29213): 0.125 µg/mL (≈ 0.233 µM)
- MIC (S. haemolyticus (Meth^R)): > 32 µg/mL
- MIC (E. faecium ATCC 35667): 4 µg/mL (≈ 7.44 µM)
- MIC (E. faecalis ATCC 29212): 1 µg/mL (≈ 1.86 µM)
- MIC [1]: 0.125 µg/mL (≈ 0.233 µM)
- MIC (P. aeruginosa ATCC 27853): > 32 µg/mL
- MIC [2]: 16 µg/mL (≈ 29.8 µM)
- MIC (E. coli ATCC 25922): > 32 µg/mL

Compound: COc1ccc(-n2nccc2SC2=C(C(=O)O)N3C(=O)[C@@H](NC(=O)Cc4ccccc4)[C@H]3SC2)cc1 [Cmpd 114, (7R)-7-[(Phenylacetyl)amino]-3-(1-N-(4-methoxyphenyl)pyrazol-5-ylthio)-3-cephem-4-carboxylic acid]
- MIC (S. aureus ATCC 29213; [3]): 0.25 µg/mL (≈ 0.478 µM)
- MIC (S. haemolyticus (Meth^R)): 32 µg/mL (≈ 61.2 µM)
- MIC (E. faecium ATCC 35667): 2 µg/mL (≈ 3.83 µM)
- MIC (E. faecalis ATCC 29212): 1 µg/mL (≈ 1.91 µM)
- MIC [1]: 0.125 µg/mL (≈ 0.239 µM)
- MIC (P. aeruginosa ATCC 27853): > 32 µg/mL
- MIC [2]: 16 µg/mL (≈ 30.6 µM)
- MIC (E. coli ATCC 25922): > 32 µg/mL

Compound: O=C(Cc1cccs1)N[C@@H]1C(=O)N2C(C(=O)O)=C(Sc3ccnn3-c3ccccc3)CS[C@H]12 [Cmpd 116, (7R)-7-[(2-thienylacetyl)amino]-3-(1-N-phenylpyrazol-5-ylthio)-3-cephem-4-carboxylic acid]
- MIC (S. aureus ATCC 29213; [3]): 0.25 µg/mL (≈ 0.501 µM)
- MIC (S. haemolyticus (Meth^R)): 16 µg/mL (≈ 32.1 µM)
- MIC (E. faecium ATCC 35667): 2 µg/mL (≈ 4.01 µM)
- MIC (E. faecalis ATCC 29212): 2 µg/mL (≈ 4.01 µM)
- MIC [1]: 0.125 µg/mL (≈ 0.251 µM)
- MIC (P. aeruginosa ATCC 27853): > 32 µg/mL
- MIC [2]: 16 µg/mL (≈ 32.1 µM)
- MIC (E. coli ATCC 25922): > 32 µg/mL

Compound: COc1cccc(-n2nccc2SC2=C(C(=O)O)N3C(=O)[C@@H](NC(=O)Cc4ccccc4)[C@H]3SC2)c1 [Cmpd 117, (7R)-7-[(Phenylacetyl)amino]-3-(1-N-(3-methoxyphenyl)pyrazol-5-ylthio)-3-cephem-4-carboxylic acid]
- MIC (S. aureus ATCC 29213; [3]): 0.25 µg/mL (≈ 0.478 µM)
- MIC (S. haemolyticus (Meth^R)): 32 µg/mL (≈ 61.2 µM)
- MIC (E. faecium ATCC 35667): 1 µg/mL (≈ 1.91 µM)
- MIC (E. faecalis ATCC 29212): 2 µg/mL (≈ 3.83 µM)
- MIC [1]: 0.125 µg/mL (≈ 0.239 µM)
- MIC (P. aeruginosa ATCC 27853): > 32 µg/mL
- MIC [2]: 16 µg/mL (≈ 30.6 µM)
- MIC (E. coli ATCC 25922): > 32 µg/mL

Compound: Nc1nnc(SCC(=O)N[C@@H]2C(=O)N3C(C(=O)O)=C(Sc4ccnn4-c4ccccc4)CS[C@H]23)s1 [Cmpd 120]
- MIC (S. aureus ATCC 29213): 0.25 µg/mL (≈ 0.456 µM)
- MIC (S. haemolyticus (Meth^R)): 32 µg/mL (≈ 58.4 µM)
- MIC (E. faecium ATCC 35667): 8 µg/mL (≈ 14.6 µM)
- MIC (E. faecalis ATCC 29212): 4 µg/mL (≈ 7.3 µM)
- MIC [1]: 0.25 µg/mL (≈ 0.456 µM)
- MIC (P. aeruginosa ATCC 27853): > 32 µg/mL
- MIC [2]: 16 µg/mL (≈ 29.2 µM)
- MIC (E. coli ATCC 25922): > 32 µg/mL

Compound: O=C(O)C1=C(Sc2ccnn2-c2ccccc2)CS[C@@H]2[C@H](NC(=O)C(=NO)c3ccco3)C(=O)N12 [Cmpd 121, (7R)-7-[2-(2-furyl)-2-(hydroxyimino)acetamido]-3-(1-N-phenylpyrazol-5-ylthio)-3-cephem-4-carboxylic acid]
- MIC (S. aureus ATCC 29213; [3]): 0.5 µg/mL (≈ 0.977 µM)
- MIC (S. haemolyticus (Meth^R)): 16 µg/mL (≈ 31.3 µM)
- MIC (E. faecium ATCC 35667): 2 µg/mL (≈ 3.91 µM)
- MIC (E. faecalis ATCC 29212): 0.5 to 1 µg/mL (≈ 0.977 to 1.95 µM)
- MIC [1]: 0.5 µg/mL (≈ 0.977 µM)
- MIC (P. aeruginosa ATCC 27853): > 32 µg/mL
- MIC [2]: 8 µg/mL (≈ 15.6 µM)
- MIC (E. coli ATCC 25922): > 32 µg/mL

Compound: O=C(Cc1ccccc1)N[C@@H]1C(=O)N2C(C(=O)O)=C(Sc3ccnn3-c3ccc(F)cc3)CS[C@H]12 [Cmpd 123, (7R)-7-[(Phenylacetyl)amino]-3-(1-N-(4-fluorophenyl)pyrazol-5-ylthio)-3-cephem-4-carboxylic acid]
- MIC (S. aureus ATCC 29213; [3]): 0.06 µg/mL (≈ 0.118 µM)
- MIC (S. haemolyticus (Meth^R)): 16 µg/mL (≈ 31.3 µM)
- MIC (E. faecium ATCC 35667): 4 µg/mL (≈ 7.83 µM)
- MIC (E. faecalis ATCC 29212): 2 µg/mL (≈ 3.92 µM)
- MIC [1]: ≤ 0.06 µg/mL
- MIC (P. aeruginosa ATCC 27853): > 32 µg/mL
- MIC [2]: 8 µg/mL (≈ 15.7 µM)
- MIC (E. coli ATCC 25922): > 32 µg/mL

— patent US5607926A, “Cephalosporin antibiotics” (Microcide Pharmaceuticals, Inc., priority 1995, dated 1997)
